Experimental findings from PMC11187126, “Structure and dynamics of the pyroglutamylated RF-amide peptide QRFP receptor GPR103” (Nature Communications, 2024) are described below.

The target of this test is T1, GPR103 T215^5.39A (Homo sapiens, UniProt Q96P65, T215A).
T1 construct: we used human full-length QRFPR-encoding plasmids; expressed in transfected cells; host or cells: HEK293 cells (HEK293A in the flow cytometry section), pCAGGS vector
T1 sequence (Q96P65 1-431 T215A): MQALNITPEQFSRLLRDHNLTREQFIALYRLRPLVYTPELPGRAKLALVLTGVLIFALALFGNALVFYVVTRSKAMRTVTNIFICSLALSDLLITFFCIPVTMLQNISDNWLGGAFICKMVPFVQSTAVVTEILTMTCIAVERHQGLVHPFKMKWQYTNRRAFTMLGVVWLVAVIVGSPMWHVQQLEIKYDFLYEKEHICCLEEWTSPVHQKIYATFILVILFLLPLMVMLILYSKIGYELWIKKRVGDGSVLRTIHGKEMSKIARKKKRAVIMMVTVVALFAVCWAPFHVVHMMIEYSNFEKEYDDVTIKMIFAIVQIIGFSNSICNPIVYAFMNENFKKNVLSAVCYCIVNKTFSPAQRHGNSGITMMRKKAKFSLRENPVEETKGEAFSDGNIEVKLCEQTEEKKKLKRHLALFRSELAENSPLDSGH
Put plainly: TGFα shedding assay; Exp. level WT (1:1). Type of test: cell-based. Here is the method: For the TGFα shedding assay and the flow cytometry analysis, we used human full-length QRFPR-encoding plasmids. Specifically, GPR103 was N-terminally modified with an HA signal sequence followed by a FLAG epitope and then a flexible linker ([…]; the FLAG epitope is underlined) and inserted into the pCAGGS vector. Plasmid encoding GPR103 mutants were generated using Quickchange Site-Directed Mutagensis kit (Agilent).
The TGFα shedding assay was performed as described previously with minor modifications. Plasmid transfection was performed in a 6-well plate with a mixture of 500 ng (per well in a 6-well plate) AP-TGFα-encoding plasmid and 200 ng GPR103-encoding plasmid. After 1-day culture, the transfected cells were harvested by trypsinization, pelleted by centrifugation at 190 × g for 5 min, and washed once with 5 mM HEPES (pH 7.4)-containing Hank’s Balanced Salt Solution (HBSS). After centrifugation, the cells were resuspended in 8 mL of the HEPES-containing HBSS. The cell suspension was seeded in a 96-well culture plate (cell plate) at a volume of 90 μL (per well hereafter) and incubated in a 37 °C incubator with 5% CO2 for 30 min. […] After spinning the cell plates at 190 × g for 2 min, 80 μL of conditioned media was transferred to an empty 96-well plate (conditioned media (CM) plate). Then, 80 μL of AP reaction solution (10 mM p-nitrophenylphosphate (p-NPP), 120 mM Tris-HCl (pH 9.5), 40 mM NaCl, and 10 mM MgCl2) was dispensed into the cell plates and the CM plates. Absorbance at 405 nm of the plates was measured using a microplate reader (SpectraMax 340 PC384, Molecular Devices) before and after 1-h incubation at room temperature. Ligand-induced AP-TGFα release was calculated by subtracting spontaneous AP-TGFα release signal from ligand-induced AP-TGFα release signal. The AP-TGFα release signals were fitted to a four-parameter sigmoidal concentration–response curve, using the Prism 10 software (GraphPad Prism). For each replicate experiment, the pEC50 parameter (negative logarithmic values of EC50 values) of the individual GPR103 mutants were normalized to that of the wild-type GPR103 performed in parallel, and resulting ∆pEC50 values were used to denote ligand response activity of the mutants. […]
Exp. le vel: WT (1:5 0)Exp. le vel: WT (1:5 0)Exp. le vel: WT (1:5 0)Exp. le vel: WT (1:2 0)Exp. le vel: WT (1:2 0)Exp. le vel: WT (1:1 0) […]
L1 4N - t e r mA F2 5N - t e r mA I 2 6N - t e r mA Y 2 9N - t e r mA C 9 82 .5 7A T10 22 .6 1A Exp . l eve l: WT (1 :5)Exp . l evel : >WT (1 :1)Exp. le vel: WT (1:2 0)Exp. le vel: WT (1:2 0)Exp. le vel: WT (1:5 0)Exp . l eve l: WT (1 :1) […]
Exp. le vel: WT (1:1 0)Exp. le vel: WT (1:2 0) C 1 1 83 .2 5AExp. le vel: WT (1:5 0)Exp. le vel: WT (1:5 0)Exp. le vel: WT (1:2 0)Exp . l eve l: WT (1 :5) […]
Exp. le vel: WT (1:5 0)Exp. le vel: WT (1:1 0)Exp. le vel: WT (1:5 0) E203ECL2AExp . l evel : >WT (1 :1)Exp. le vel: WT (1:5 0)Exp. le vel: WT (1:5 0) […]
Exp . l eve l: WT (1 :1) F28Exp. le vel: WT (1:5 0) C 2 8 56 .4 7AExp. le vel: WT (1:2 0) WExp. le vel: WT (1:2 0) F28Exp. le vel: WT (1:5 0)Exp . l evel : >WT (1 :1) […]
Exp. le vel: WT (1:5 0)Exp. le vel: WT (1:5 0) C 3 2 77 .4 8AExp . l eve l: WT (1 :5)Exp . l evel : >WT (1 :1)Exp . l evel : >WT (1 :1) […]
Suppl eme nt ary Figure 1 | Mutational analysis of GPR103. […]
mutants. Data are presented as mean values ± SEM, normally n=3-5; dots), each performed in triplicate. b-d Cell-surface expression (b) and QRFP26-in-duced activation of GPR103 (c, d) were analyzed by the flow cytometry and the TGFα shedding assay, respectively. From the concentration–response curves (a), Emax (c) and ΔpEC50 (d) values relative to the wild type were calculated. Colors in the mutant bars indicate an expression level matching to that of titrated wild type. Statistical analyses were performed using the ordinary one-way ANOVA followed by Dunnett tests with the expression-matched […]

Read-outs that look alike come from different tables or passages of the source. No end group written: not given here.

For TSGPLGNLAEELNGYSRKKGGFSFRF-NH2 [QRFP26], the Emax (Exp. #1) is given as 95.52 % WT; the Emax (Exp. #2) amounted to 99.37 % WT; the Emax (Exp. #3) is 104.64 % WT; the Emax (mean, read-out: Emax) turned out to be 99.8%; the Emax (n = 3, read-out: Emax) was found to be 103 ± 2.2%. For the same substance, the EC50 – broadly, the concentration giving half of the maximal effect – (n = 3) is 6.46 nM.
